In patent US6335451B1, “Five-membered heterocycles having biphenylsulfonyl substitution, with sulfonylcyanamide side chain, compositions containing them, and methods of using them” (Hoechst Aktiengesellschaft, priority 1997, dated 2002):

Legend:
[1] = system: Na+-dependent Cl−/HCO3− exchanger (NCBE); experiment: Inhibition of the Na+-dependent Cl−/HCO3− exchanger (NCBE) in human endothelial cells (pHi recovery, BCECF fluorescence, FLIPR); format: cell-based; settings: inhibitor concentration of 10 μM; human endothelial cells (ECV-304); relative to 100% and 0% pHi recovery controls, 50 μM HOE 642 present
Procedure: Inhibition of the Na^+-dependent Cl^−/HCO3^− exchanger (NCBE) in human endothelial cells
Human endothelial cells (ECV-304) were detached from culture bottles with the aid of trypsin/EDTA buffer (0.05/0.02% in phosphate buffer) and, after centrifugation (100 g, 5 min), taken up in a buffered salt solution (mmol/l: 115 NaCl, 20 NH4Cl, 5 KCl, 1 CaCl2, 1 MgSO4, 20 N-(2-hydroxyethyl)piperazine-N′-2-ethanesulfonic acid (HEPES), 5 glucose and 1 g/l of bovine serum albumin; pH 7.4). This cell suspension was incubated at 37° C. for 20 min with 5 μM BCECF-acetoxymethyl ester. The cells were then washed and resuspended in a sodium- and bicarbonate-free buffer solution (mmol/l: 5 HEPES, 133.8 choline chloride, 4.7 KCl, 1.25 MgCl2, 0.97 K2HPO4, 0.23 KH2PO4, 5 glucose; pH 7.4).
For subsequent fluorescence measurement in an FLIPR (Fluorescent Imaging Plate Reader) 100 μl of this cell suspension having 20,000 cells in each case were pipetted per well into a 96-well microtiter plate and this microtiter plate was centrifuged (100 g, 5 min).
In the FLIPR, 100 μl of buffer solution in each case were then removed from a further pretreated microtiter plate and pipetted into each of the 96 wells of the measurement plate. A bicarbonate- and sodium-containing buffer solution (mmol/l: 5 HEPES, 93.8 NaCl, 40 NaHCO3, 4.7 KCl, 1.25 CaCl2, 1.25 MgCl2, 0.97 Na2HPO4, 0.23 NaH2PO4, 5 glucose; pH 7.4) which contained 50 μM HOE 642 was used for a 100% control, i.e. a recovery of the intracellular pH (pHi) via the NCBE. For a 0% control, i.e. no pHi recovery at all, the bicarbonate-free, sodium-containing buffer solution (mmol/l: 5 HEPES, 133.8 NaCl, 4.7 KCl, 1.25 CaCl2, 1.25 MgCl2, 0.97 Na2HPO4, 0.23 NaH2PO4, 5 glucose; pH 7.4) was employed, to which 50 μM HOE 642 were likewise added. The compounds according to the invention were added to the sodium- and bicarbonate-containing solution in various concentrations.
After addition of the buffer solutions to the dye-loaded, acidified cells in the measurement plate, the rise in the fluorescence intensity which corresponded to a rise in the pHi in each well of the microtiter plate was determined. The kinetics were in this case recorded at 35° C. for a period of 2 minutes.
The increase in the fluorescence intensities for different concentrations of the compounds according to the invention was related to the two controls and from this inhibitory action of the substances was determined.
Residual Activity of the NCBE at an Inhibitor Concentration of 10 μM

SMILES	melting point	Residual activity in % (residual activity of the NCBE) [1] [%]
CCOC(=O)c1c(SC)nc(CC)n1Cc1ccc(-c2ccccc2S(=O)(=O)NC#N)cc1 [Example 17, Ethyl 2-ethyl-5-methylsulfanyl-3-(2′-cyanoaminosulfonylbiphenyl-4-ylmethyl)-3H-imidazole-4-carboxylate]	94 °C (dec.)	39.1
CCOC(=O)c1c(SC)nc(C(C)C)n1Cc1ccc(-c2ccccc2S(=O)(=O)NC#N)cc1 [Example 19, Ethyl 2-isopropyl-5-methylsulfanyl-3-(2′-cyanoaminosulfonylbiphenyl-4-ylmethyl)-3H-imidazole-4-carboxylate]	276 °C (dec.)	21.5
CCCCc1nc(SC)c(C(=O)OC(C)C)n1Cc1ccc(-c2ccccc2S(=O)(=O)NC#N)cc1 [Example 20, Isopropyl 2-butyl-5-methylsulfanyl-3-(2′-cyanoaminosulfonylbiphenyl-4-ylmethyl)-3H-imidazole-4-carboxylate]	113 °C (dec.)	19.5
CCCCc1nc(SC)c(C(=O)OCC)n1Cc1ccc(-c2cc(S(=O)(=O)NC#N)ccc2C)cc1 [Example 21, Ethyl 2-butyl-3-(2′-methyl-5′-cyanoaminosulfonylbiphenyl-4-yl-methyl)-5-methylsulfanyl-3H-imidazole-4-carboxylate]	127 °C (dec.)	42.6
CCCCc1nc(SC)c(C(=O)OCC)n1Cc1ccc(-c2ccc(S(=O)(=O)NC#N)cc2C)cc1 [Example 22, Ethyl 2-butyl-3-(2′-methyl-4′-cyanoaminosulfonylbiphenyl-4-yl-methyl)-5-methylsulfanyl-3H-imidazole-4-carboxylate]	211 °C	34.2
CCCCc1nc(SC)c(C(=O)OCC)n1Cc1cccc(-c2ccc(S(=O)(=O)NC#N)cc2C(F)(F)F)c1 [Example 26, Ethyl 2-butyl-5-methylsulfanyl-3-(4′-cyanoaminosulfonyl-2′-trifluoromethylbiphenyl-3-ylmethyl)-3H-imidazole-4-carboxylate]	122 °C (dec.)	65.3
N#CNS(=O)(=O)c1ccccc1-c1ccc(Cn2c(-c3ccc(Cl)cc3)nc(Cl)c2C=O)cc1 [Example 36, 4′-[4-Chloro-5-formyl-2-(4-chlorphenyl)-imidazole-1-ylmethyl]-biphenyl-2-sulfonylcyanamide]	160 to 187 °C	7.8
COc1ccc(-c2nc(Cl)c(C=O)n2Cc2ccc(-c3ccccc3S(=O)(=O)NC#N)cc2)cc1 [Example 37, 4′-[4-Chloro-5-formyl-2-(4-methoxyphenyl)-imidazole-1-ylmethyl]-biphenyl-2-sulfonylcyanamide]	110 to 126 °C	16.8

Further lines, with some results ahead:

melting point	SMILES	Residual activity in % (residual activity of the NCBE) [1] [%]
169 °C (dec.)	CCOC(=O)c1c(SC)nc(C)n1Cc1ccc(-c2ccccc2S(=O)(=O)NC#N)cc1 [Example 18, Ethyl 2-methyl-5-methylsulfanyl-3-(2′-cyanoaminosulfonylbiphenyl-4-ylmethyl)-3H-imidazole-4-carboxylate]	45.8
160 °C (dec.)	CCCCc1nc(SC)c(C(=O)OCC)n1Cc1cccc(-c2cc(S(=O)(=O)NC#N)ccc2C)c1 [Example 24, Ethyl 2-butyl-3-(2′-methyl-5′-cyanoaminosulfonylbiphenyl-3-yl-methyl)-5-methylsulfanyl-3H-imidazole-4-carboxylate]	29.2
115 °C (dec.)	CCCCc1nc(SC)c(C(=O)OCC)n1Cc1cccc(-c2ccc(S(=O)(=O)NC#N)cc2C)c1 [Example 25, Ethyl 2-butyl-3-(2′-methyl-4′-cyanoaminosulfonylbiphenyl-3-yl-methyl)-5-methylsulfanyl-3H-imidazole-4-carboxylate]	70.8
164 to 178 °C	N#CNS(=O)(=O)c1ccccc1-c1ccc(Cn2c(-c3c(F)cccc3F)nc(Cl)c2C=O)cc1 [Example 38, 4′-[4-Chloro-5-formyl-2-(2,6-difluorphenyl)-imidazole-1-ylmethyl]-biphenyl-2-sulfonylcyanamide]	8.6
